Data reported in patent US20260215428A1, “WEED CONTROL METHOD” (SYNGENTA CROP PROTECTION AG, priority 2023, published 2026).

Columns and labels:
Assay type in all cases: in vivo
Lolium multiflorum = assay: Glasshouse post-emergence test, visual damage, Table B1-1
Description: Seeds of a variety of test species are sown in standard soil in pots. For each treatment, three replicate pots containing 10-15 plants per one-inch pot were sprayed at the 2-3 leaf stage. Clethodim and Compound (Ic) were each applied at 15, 30, 60 and 120 g ai/ha. The test plants are then grown in a glasshouse under controlled conditions in a glasshouse (at 24/16° C., day/night; 14 hours light; 65% humidity) and watered twice daily. […]

Eleusine indica [1] = assay: Glasshouse post-emergence test, visual damage, Tables B1-2 and B1-3; details: 14 days after application
Description: Seeds of a variety of test species are sown in standard soil in pots. For each treatment, three replicate pots containing 10-15 plants per one-inch pot were sprayed at the 2-3 leaf stage. […] The test plants are then grown in a glasshouse under controlled conditions in a glasshouse (at 24/16° C., day/night; 14 hours light; 65% humidity) and watered twice daily. Plants were assessed for visual damage compared to the untreated control 14 days after application (0=0% damage; 100=100% damage).

Volunteer corn = assay: 26 field trials, control of volunteer corn, Table B1-6; details: 100 g/ha
Eleusine indica [2] = assay: Further glasshouse test versus other ACCase-inhibiting herbicides, Table B2-2; details: 21 days after application
Description: Further tests were employed to test the efficacy of a compound of Formula I versus other ACCase-inhibiting herbicides. The five main targets were Lolium multiflorum, Eleusine indica, Digitaria insularis, Sorghum halepense and Echinochloa crus-galli. Collectively, the populations contained all the major target-site resistance mutations affecting ACCase herbicides. Two L. multiflorum (LM-NTSR-1 and LM-NTSR-2) and one E. crus-galli (ECG-NTSR-1) populations were characterised exclusively by non-target-site resistance (“NTSR”). The target-site resistant L. multiflorum and E. indication populations were 100% homozygous for different ACCase mutations whilst the D. insularis, S. halepense and E. crus-galli samples contained a mixture of homozygous wild and mutant individuals at different genotypic frequencies. Additional underlying NTSR cannot be ruled out in the populations characterised by target-site resistance.
Around 50 seeds of each of the 24 weed populations were sown in 12-cm pots containing a mixture of peat and compost in a 1:1 ratio. The pots were watered, fertilised and kept in controlled glasshouse conditions set at 24° C./16 hr day, 18° C. night, 65% relative humidity, and a photon flux density of approximately 250 μmol quanta m^−2 s^−1 for Lolium multiflorum. The E. indica, D. insularis, S. halepense and E. crus-galli plants were kept in a separate glasshouse bay characterised by a 17 H photoperiod of 180 μmol m^−2 s^−1 with temperatures of 25° C. day and 19° C. night and 65% relative humidity. When the plants were at the two to four-leaf stage, they were treated with the various ACCase-inhibiting herbicides at 0, 15, 30, 60, 120 and 240 g ai ha^−1 in a spray cabinet mounted with a single mobile Teejet flat fan nozzle (11002VS) calibrated to deliver 200 L ha^−1 at 200 kPa. The L. multiflorum populations were treated by a compound of Formula Ic, clodinafop-propargyl, pinoxaden, cycloxydim and clethodim and the warm season grass weeds E. indica, D. insularis, S. halepense and E. crus-galli were sprayed with a Compound Ic and the commonly employed haloxyfop-methyl and clethodim. Three replicate pots were used per population. Plants were assessed for visual damage compared to the untreated control 21 days after application (0=0% damage; 100=100% damage).

CCSC(C)CC1CC(=O)C(/C(CC)=N/OC/C=C/Cl)=C(O)C1 (stereo not shown) [Clethodim, clethodim]
visual damage (Lolium multiflorum; biotype CC2027 (homozygous), 15 g/ha, 14 days after application): 53%
visual damage (Lolium multiflorum; biotype CC2027 (homozygous), 30 g/ha, 14 days after application): 77%
visual damage (Lolium multiflorum; biotype CC2027 (homozygous), 60 g/ha, 14 days after application): 100%
visual damage (Lolium multiflorum; biotype CC2027 (homozygous), 120 g/ha, 14 days after application): 100%
visual damage (Lolium multiflorum; biotype GG2078 (homozygous), 15 g/ha, 14 days after application): 0%
visual damage (Lolium multiflorum; biotype GG2078 (homozygous), 30 g/ha, 14 days after application): 20%
visual damage (Lolium multiflorum; biotype GG2078 (homozygous), 60 g/ha, 14 days after application): 20%
visual damage (Lolium multiflorum; biotype GG2078 (homozygous), 120 g/ha, 14 days after application): 50%
visual damage (Lolium multiflorum; biotype LL1781 (homozygous), 15 g/ha, 14 days after application): 23%
visual damage (Lolium multiflorum; biotype LL1781 (homozygous), 30 g/ha, 14 days after application): 37%
visual damage (Lolium multiflorum; biotype LL1781 (homozygous), 60 g/ha, 14 days after application): 60%
visual damage (Lolium multiflorum; biotype LL1781 (homozygous), 120 g/ha, 14 days after application): 70%
visual damage (Lolium multiflorum; biotype NN2041 (homozygous), 15 g/ha, 14 days after application): 70%
visual damage (Lolium multiflorum; biotype NN2041 (homozygous), 30 g/ha, 14 days after application): 100%
visual damage (Lolium multiflorum; biotype NN2041 (homozygous), 60 g/ha, 14 days after application): 100%
visual damage (Lolium multiflorum; biotype NN2041 (homozygous), 120 g/ha, 14 days after application): 100%
visual damage (Lolium multiflorum; biotype RR2088 (homozygous), 15 g/ha, 14 days after application): 0%
visual damage (Lolium multiflorum; biotype RR2088 (homozygous), 30 g/ha, 14 days after application): 20%
visual damage (Lolium multiflorum; biotype RR2088 (homozygous), 60 g/ha, 14 days after application): 60%
visual damage (Lolium multiflorum; biotype RR2088 (homozygous), 120 g/ha, 14 days after application): 60%
visual damage (Lolium multiflorum; biotype SS1999 (homozygous), 15 g/ha, 21 DAA): 27%
visual damage (Lolium multiflorum; biotype SS1999 (homozygous), 30 g/ha, 21 DAA): 98%
visual damage (Lolium multiflorum; biotype SS1999 (homozygous), 60 g/ha, 21 DAA): 100%
visual damage (Lolium multiflorum; biotype SS1999 (homozygous), 120 g/ha, 21 DAA): 100%
visual damage (Lolium multiflorum; biotype Sensitive, 15 g/ha, 14 days after application): 53%
visual damage (Lolium multiflorum; biotype Sensitive, 30 g/ha, 14 days after application): 73%
visual damage (Lolium multiflorum; biotype Sensitive, 60 g/ha, 14 days after application): 99%
visual damage (Lolium multiflorum; biotype Sensitive, 120 g/ha, 14 days after application): 100%
visual damage (Eleusine indica [1]; Table B1-2, biotype 87% I1781L (heterozygous), 15 g/ha): 80%
visual damage (Eleusine indica [1]; Table B1-2, biotype 87% I1781L (heterozygous), 30 g/ha): 77%
visual damage (Eleusine indica [1]; Table B1-2, biotype 87% I1781L (heterozygous), 60 g/ha): 100%
visual damage (Eleusine indica [1]; Table B1-2, biotype 87% I1781L (heterozygous), 120 g/ha): 100%
visual damage (Eleusine indica [1]; Table B1-2, biotype D2078G + W2027C (heterozygous), first entry, 15 g/ha): 50%
visual damage (Eleusine indica [1]; Table B1-2, biotype D2078G + W2027C (heterozygous), first entry, 30 g/ha): 60%
visual damage (Eleusine indica [1]; Table B1-2, biotype D2078G + W2027C (heterozygous), first entry, 60 g/ha): 70%
visual damage (Eleusine indica [1]; Table B1-2, biotype D2078G + W2027C (heterozygous), first entry, 120 g/ha): 80%
visual damage (Eleusine indica [1]; Table B1-2, biotype D2078G + W2027C (heterozygous), second entry, 15 g/ha): 63%
visual damage (Eleusine indica [1]; Table B1-2, biotype D2078G + W2027C (heterozygous), second entry, 30 g/ha): 67%
visual damage (Eleusine indica [1]; Table B1-2, biotype D2078G + W2027C (heterozygous), second entry, 60 g/ha): 93%
visual damage (Eleusine indica [1]; Table B1-2, biotype D2078G + W2027C (heterozygous), second entry, 120 g/ha): 100%
visual damage (Eleusine indica [1]; Table B1-2, biotype I2041N (heterozygous), 15 g/ha): 82%
visual damage (Eleusine indica [1]; Table B1-2, biotype I2041N (heterozygous), 30 g/ha): 100%
visual damage (Eleusine indica [1]; Table B1-2, biotype I2041N (heterozygous), 60 g/ha): 100%
visual damage (Eleusine indica [1]; Table B1-2, biotype I2041N (heterozygous), 120 g/ha): 100%
visual damage (Eleusine indica [1]; Table B1-2, biotype NTSR (non-target site resistance), 1 g/ha): 0%
visual damage (Eleusine indica [1]; Table B1-2, biotype NTSR (non-target site resistance), 2 g/ha): 33%
visual damage (Eleusine indica [1]; Table B1-2, biotype NTSR (non-target site resistance), 4 g/ha): 43%
visual damage (Eleusine indica [1]; Table B1-2, biotype NTSR (non-target site resistance), 8 g/ha): 77%
visual damage (Eleusine indica [1]; Table B1-2, biotype Sensitive, 15 g/ha): 87%
visual damage (Eleusine indica [1]; Table B1-2, biotype Sensitive, 30 g/ha): 100%
visual damage (Eleusine indica [1]; Table B1-2, biotype Sensitive, 60 g/ha): 100%
visual damage (Eleusine indica [1]; Table B1-2, biotype Sensitive, 120 g/ha): 100%
visual damage (Eleusine indica [1]; Table B1-3, Pop1 (mix of sensitive, D2078G and G2096A biotypes), 15 g/ha): 10%
visual damage (Eleusine indica [1]; Table B1-3, Pop1 (mix of sensitive, D2078G and G2096A biotypes), 30 g/ha): 33%
visual damage (Eleusine indica [1]; Table B1-3, Pop1 (mix of sensitive, D2078G and G2096A biotypes), 60 g/ha): 47%
visual damage (Eleusine indica [1]; Table B1-3, Pop1 (mix of sensitive, D2078G and G2096A biotypes), 120 g/ha): 63%
visual damage (Eleusine indica [1]; Table B1-3, Pop2 (mix of sensitive, D2078G and G2096A biotypes), 15 g/ha): 10%
visual damage (Eleusine indica [1]; Table B1-3, Pop2 (mix of sensitive, D2078G and G2096A biotypes), 30 g/ha): 33%
visual damage (Eleusine indica [1]; Table B1-3, Pop2 (mix of sensitive, D2078G and G2096A biotypes), 60 g/ha): 76%
visual damage (Eleusine indica [1]; Table B1-3, Pop2 (mix of sensitive, D2078G and G2096A biotypes), 120 g/ha): 77%
visual damage (Eleusine indica [1]; Table B1-3, biotype Sensitive, 15 g/ha): 100%
visual damage (Eleusine indica [1]; Table B1-3, biotype Sensitive, 30 g/ha): 100%
visual damage (Eleusine indica [1]; Table B1-3, biotype Sensitive, 60 g/ha): 100%
visual damage (Eleusine indica [1]; Table B1-3, biotype Sensitive, 120 g/ha): 100%
Control (14d) (Volunteer corn; 14d): 90%
Control (28d) (Volunteer corn; 28d): 96%
visual damage (Eleusine indica [2]; biotype D2078G, 15 g/ha): 10%
visual damage (Eleusine indica [2]; biotype D2078G, 30 g/ha): 27%
visual damage (Eleusine indica [2]; biotype D2078G, 60 g/ha): 53%
visual damage (Eleusine indica [2]; biotype D2078G, 120 g/ha): 100%
visual damage (Eleusine indica [2]; biotype D2078G, 240 g/ha): 100%
visual damage (Eleusine indica [2]; biotype G2096A, 15 g/ha): 7%
visual damage (Eleusine indica [2]; biotype G2096A, 30 g/ha): 30%
visual damage (Eleusine indica [2]; biotype G2096A, 60 g/ha): 78%
visual damage (Eleusine indica [2]; biotype G2096A, 120 g/ha): 100%
visual damage (Eleusine indica [2]; biotype G2096A, 240 g/ha): 100%
visual damage (Eleusine indica [2]; biotype I2041N, 15 g/ha): 60%
visual damage (Eleusine indica [2]; biotype I2041N, 30 g/ha): 27%
visual damage (Eleusine indica [2]; biotype I2041N, 60 g/ha): 53%
visual damage (Eleusine indica [2]; biotype I2041N, 120 g/ha): 100%
visual damage (Eleusine indica [2]; biotype I2041N, 240 g/ha): 100%
visual damage (Eleusine indica [2]; biotype Sensitive, 15 g/ha): 92%
visual damage (Eleusine indica [2]; biotype Sensitive, 30 g/ha): 100%
visual damage (Eleusine indica [2]; biotype Sensitive, 60 g/ha): 100%
visual damage (Eleusine indica [2]; biotype Sensitive, 120 g/ha): 100%
visual damage (Eleusine indica [2]; biotype Sensitive, 240 g/ha): 100%
visual damage (Eleusine indica [2]; biotype W2027C, 15 g/ha): 93%
visual damage (Eleusine indica [2]; biotype W2027C, 30 g/ha): 100%
visual damage (Eleusine indica [2]; biotype W2027C, 60 g/ha): 100%
visual damage (Eleusine indica [2]; biotype W2027C, 120 g/ha): 100%
visual damage (Eleusine indica [2]; biotype W2027C, 240 g/ha): 100%
